Experimental data taken from patent publication US20040142882A1, “Use of glycyrrhizin and its derivatives as RANTES inducers” (priority 2002, published 2004).

What was measured:
[1] = system: peripheral mononuclear cells; assay: RANTES induction in peripheral mononuclear cells from healthy individuals (Quantikine immunoassay of culture supernatant); assay type: cell-based, human
Experimental: Peripheral blood was collected from healthy individuals and peripheral mononuclear cells were isolated with Ficoll-Hypaque. RPMI1640 medium containing 10% FCS and antibiotics (penicillin and streptomycin) was used for culturing. After stimulating 1×10^6 cells/ml of peripheral mononuclear cells with 100 μg/ml of sodium olean-3β-hydroxy-11-oxo-12-ene-30-ate, disodium olean-9(11),12-diene-3β,30-diol-3β,30-O-dihemiphthalate, disodium olean-11,13 (18)-diene-3β,30-diol-3β,30-O-dihemiphthalate, disodium olean-3β-hydroxy-11,13(18)-diene-30-ate-3β-O-hemiphthalate, disodium olean-3β-hydroxy-11-oxo-12-ene-30-ate-3β-O-hemiphthalate, or monoammonium glycyrrhizinate for 24 hours, the amount of RANTES in the culture supernatant was measured with a Human RANTES/CCL5 Quantikine Immunoassay Kit (R&D Systems). Furthermore, the control in the drawing indicates the amount of RANTES in culture supernatant when peripheral mononuclear cells were treated with medium only.
Peripheral blood was collected from healthy subjects and peripheral mononuclear cells were isolated with Ficoll-Hypaque. 1×10^6 cells/ml of peripheral mononuclear cells were stimulated with 100 μg/ml of monoammonium glycyrrhizinate (monoammonium glycyrrhizinate will hereinafter be referred to as glycyrrhizin). Taking the time at which glycyrrhizin was added to be 0 hours, the amount of RANTES present in the culture supernatant was measured with the Human RANTES/CCL5 Quantikine Immunoassay Kit (R&D Systems) 12, 24, 48 and 72 hours later. Furthermore, the control in the drawing indicates the amount of RANTES in culture supernatant of peripheral mononuclear cells not treated with glycyrrhizin.
(§1) Peripheral blood was collected from healthy subjects and peripheral mononuclear cells were isolated with Ficoll-Hypaque. 1×10^6 cells/ml of peripheral mononuclear cells were stimulated for 24 hours with 0.1-100 μg/ml of glycyrrhizin. The amount of RANTES present in the culture supernatant was measured with the Human RANTES/CCL5 Quantikine Immunoassay Kit (R&D Systems).

[2] = system: mononuclear cells originated from mouse spleen; assay: RANTES induction in mononuclear cells originated from mouse spleen; assay type: cell-based
Excerpt: The above results were able to be confirmed not only in humans, but also in experiments using mononuclear cells originated from mouse spleen.

[3] = system: peripheral mononuclear cells from AIDS patients; assay: RANTES induction in peripheral mononuclear cells from AIDS patients; assay type: cell-based, human; details: 100 μg/ml, 24 hours, cells from 3 AIDS patients, FIG. 4
Experimental: as §1, with “3 AIDS patients (CD4 count: 215-418 cells/μl, viral load: 80,000-370,000 copies/ml)” for “healthy subjects”, “100” for “0.1-100”, “Systems). Furthermore, the control in the drawing indicates the amount of RANTES in culture supernatant of peripheral mononuclear cells not treated with glycyrrhizin.” for “Systems).”

IL-12Rβ2 mRNA = assay: Th1 cell induction: IL-12Rβ2 mRNA expression by RT-PCR in peripheral mononuclear cells; assay type: cell-based, human; details: 7 days, FIG. 5
Experimental: Peripheral blood was collected from healthy subjects and peripheral mononuclear cells were isolated with Ficoll-Hypaque. 1×10^6 cells/ml of peripheral mononuclear cells were cultured for 7 days in medium containing IL-2 (10 U/ml) and anti-IFN-γ monoclonal antibody (10 μg/ml) in the presence of 100 μg/ml of glycyrrhizin, or glycyrrhizin and anti-RANTES monoclonal antibody (10 μg/ml). After culturing, RNA was extracted from the cells, and the expression of IL-12Rβ2 mRNA, a marker for Th1 cells, was measured by RT-PCR. […] In other words, IFN-γ is not involved in the reaction used in this experiment. Furthermore, the control in the drawing indicates the degree of expression of IL-12Rβ2 mRNA in mononuclear cells when cultured without the addition of glycyrrhizin.

[4] = system: septicemia induced by cecal ligation and puncture (CLP); assay: Septicemia model (cecal ligation and puncture) in IFN-γ knockout mice, survival; assay type: in vivo; details: 7 days
Experimental: Glycyrrhizin was administered intraperitoneally to IFN-γ knockout mice at 20 mg/kg, and septicemia was induced by cecal ligation and puncture (CLP) 2 hours later.
Glycyrrhizin was administered intraperitoneally to IFN-γ knockout mice at 20 mg/kg, and septicemia was induced by CLP 2 hours later. 10 μg/ml of anti-RANTES monoclonal antibody were administered subcutaneously 2 hours before, 12 hours after and 24 hours after administration of glycyrrhizin, while an equal amount of Ig was administered subcutaneously to a control group.

[5] = system: methicillin-resistant Staphylococcus aureus (MRSA); assay: MRSA infection in SCIDbgMN mice inoculated with spleen mononuclear cells of IFN-γ knockout mice, survival; assay type: in vivo; details: 10 days
Experimental: Spleen mononuclear cells originated from IFN-γ knockout mice (5×10^6 cells/ml) were inoculated into SCIDbgMN mice (SCID-beige mice deficient in macrophage and neutrophil functions). A 20 mg/kg dose of glycyrrhizin was administered intraperitoneally immediately after inoculation. 2 hours later, the animals were infected through the tail vein with methicillin-resistant Staphylococcus aureus (MRSA) at a level of 5 LD50. Furthermore, a control group was infected with an equal amount of MRSA following administration of physiological saline.
Spleen mononuclear cells originated from IFN-γ knockout mice (5×10^6 cells/ml) were inoculated into SCIDbgMN mice. A 20 mg/kg dose of glycyrrhizin was administered intraperitoneally immediately after inoculation. 2 hours later, the animals were infected through the tail vein with methicillin-resistant Staphylococcus aureus (MRSA) at a level of 5 LD50. 10 μg/ml of anti-RANTES monoclonal antibody was administered subcutaneously 2 hours before, 12 hours after and 24 hours after administration of glycyrrhizin, while an equal amount of Ig was administered subcutaneously to a control group.

HIV [6] = details: reported in recent years; cited from earlier work
HIV [7] = details: 150 to 225 mg (6 to 9 tablets) per day, asymptomatic carriers (AC); cited from earlier work

| SMILES | amount of RANTES in the culture supernatant ([1]; 100 μg/ml compound, 24 hours, 1×10^6 cells/ml, FIG. 1) | production of RANTES over time ([1]; 100 μg/ml, 12, 24, 48 and 72 hours, FIG. 2) | RANTES induction versus concentration ([1]; 0.1-100 μg/ml tested, 24 hours, dose dependent within 1-100 μg/ml, FIG. 3) | RANTES induction confirmed in mouse cells [2] | RANTES induction [3] | expression of IL-12Rβ2 mRNA (Th1 marker) with anti-RANTES monoclonal antibody (IL-12Rβ2 mRNA; 100 μg/ml glycyrrhizin plus anti-RANTES monoclonal antibody 10 μg/ml) | expression of IL-12Rβ2 mRNA (Th1 marker) (IL-12Rβ2 mRNA; 100 μg/ml, with IL-2 and anti-IFN-γ monoclonal antibody) | mortality rate after septicemic infection with anti-RANTES monoclonal antibody ([4]; 20 mg/kg i.p. plus anti-RANTES monoclonal antibody subcutaneously, FIG. 7) | survival rate after septicemic infection ([4]; 20 mg/kg intraperitoneally 2 hours before CLP, FIG. 6) | mortality rate after MRSA infection with anti-RANTES monoclonal antibody ([5]; 20 mg/kg i.p. plus anti-RANTES monoclonal antibody subcutaneously, FIG. 9) | survival rate after MRSA infection ([5]; 20 mg/kg intraperitoneally 2 hours before MRSA 5 LD50 via tail vein, FIG. 8) | intracellular growth of HIV (HIV [6]) | survival without the onset of AIDS (HIV [7]) | amount of RANTES induced compared with monoammonium glycyrrhizinate ([1]; 100 μg/ml compound, 24 hours, FIG. 1) |
| --- | --- | --- | --- | --- | --- | --- | --- | --- | --- | --- | --- | --- | --- | --- |
| CC1(C)[C@@H](O[C@H]2O[C@H](C(=O)O)[C@@H](O)[C@H](O)[C@H]2O[C@@H]2O[C@H](C(=O)O)[C@@H](O)[C@H](O)[C@H]2O)CC[C@]2(C)[C@H]3C(=O)C=C4[C@@H]5C[C@@](C)(C(=O)O)CC[C@]5(C)CC[C@@]4(C)[C@]3(C)CC[C@@H]12.N [GR, monoammonium glycyrrhizinate] | 3 ng/mL | increased with the passage of culturing time | dose dependent manner | confirmed | RANTES was induced | no longer demonstrated its expression | increase in the expression of IL-12Rβ2 mRNA | increased to the same level as the control group | 80% | increased to the same level as the control group | 75% | inhibits the intracellular growth of HIV | ≥ 10 years | – |
| CC1(COC(=O)c2ccccc2C(=O)[O-])CCC2(C)CCC3(C)C(=C2C1)C=CC1C2(C)CCC(OC(=O)c4ccccc4C(=O)[O-])C(C)(C)C2CCC13C.[Na+].[Na+] (stereo not drawn) [MUN-014, disodium olean-11,13(18)-diene-3β,30-diol-3β,30-O-dihemiphthalate] | – | – | – | – | – | – | – | – | – | – | – | – | – | nearly equal amount |
